Measured values published in PMC4512239 (Clinical cancer research : an official journal of the …, 2015).

Assay: phase I safety and tolerability
Assay type: in vivo, human

CNC(=O)c1cccc(-c2ccc3c(N4CCOC[C@@H]4C)nc(N4CCOC[C@@H]4C)nc3n2)c1 [AZD2014]
grade 3 or above hypercholesterolemia or triglyceridemia (50 mg BD cohort): no grade 3 or above hypercholesterolemia or triglyceridemia was seen | dose limiting toxicities (50 mg BD starting dose, 6 patients): no DLTs | nausea, mucositis, diarrhea and vomiting: share of grade 3 or 4 (50 mg BD, Part A and Part B): less than 5% | rash: share of grade 3 or higher (50 mg BD, Part A and Part B): less than 5% | evaluable patients with dose limiting toxicities (70 mg BD): 2/4 | patients with dose limiting toxicities (100 mg BD): 4/4 | Anemia, Any grade (All 50mg BD solution (N=41)): 7 (17.1) Number (%) of patients | Anemia, CTCAE grade 1-2 (All 50mg BD solution (N=41)): 7 (17.1) Number (%) of patients | Anemia, CTCAE grade >=3 (All 50mg BD solution (N=41)): 0 Number (%) of patients | Back pain, Any grade (All 50mg BD solution (N=41)): 7 (17.1) Number (%) of patients | Back pain, CTCAE grade 1-2 (All 50mg BD solution (N=41)): 6 (14.6) Number (%) of patients | Back pain, CTCAE grade >=3 (All 50mg BD solution (N=41)): 1 (2.4) Number (%) of patients | Constipation, Any grade (All 50mg BD solution (N=41)): 13 (31.7) Number (%) of patients | Constipation, CTCAE grade 1-2 (All 50mg BD solution (N=41)): 13 (31.7) Number (%) of patients | Constipation, CTCAE grade >=3 (All 50mg BD solution (N=41)): 0 Number (%) of patients | Cough, Any grade (All 50mg BD solution (N=41)): 8 (19.5) Number (%) of patients | Cough, CTCAE grade 1-2 (All 50mg BD solution (N=41)): 8 (19.5) Number (%) of patients | Cough, CTCAE grade >=3 (All 50mg BD solution (N=41)): 0 Number (%) of patients | Decreased appetite, Any grade (All 50mg BD solution (N=41)): 17 (41.5) Number (%) of patients | Decreased appetite, CTCAE grade 1-2 (All 50mg BD solution (N=41)): 17 (41.5) Number (%) of patients | Decreased appetite, CTCAE grade >=3 (All 50mg BD solution (N=41)): 0 Number (%) of patients | Diarrhea, Any grade (All 50mg BD solution (N=41)): 17 (41.5) Number (%) of patients | Diarrhea, CTCAE grade 1-2 (All 50mg BD solution (N=41)): 17 (41.5) Number (%) of patients | Diarrhea, CTCAE grade >=3 (All 50mg BD solution (N=41)): 0 Number (%) of patients | Dry mouth, Any grade (All 50mg BD solution (N=41)): 8 (19.5) Number (%) of patients | Dry mouth, CTCAE grade 1-2 (All 50mg BD solution (N=41)): 8 (19.5) Number (%) of patients | Dry mouth, CTCAE grade >=3 (All 50mg BD solution (N=41)): 0 Number (%) of patients | Dyspnea, Any grade (All 50mg BD solution (N=41)): 7 (17.1) Number (%) of patients | Dyspnea, CTCAE grade 1-2 (All 50mg BD solution (N=41)): 5 (12.2) Number (%) of patients | Dyspnea, CTCAE grade >=3 (All 50mg BD solution (N=41)): 2 (4.9) Number (%) of patients | Fatigue, Any grade (All 50mg BD solution (N=41)): 32 (78.0) Number (%) of patients | Fatigue, CTCAE grade 1-2 (All 50mg BD solution (N=41)): 30 (73.2) Number (%) of patients | Fatigue, CTCAE grade >=3 (All 50mg BD solution (N=41)): 2 (4.9) Number (%) of patients | Hypokalemia, Any grade (All 50mg BD solution (N=41)): 6 (14.6) Number (%) of patients | Hypokalemia, CTCAE grade 1-2 (All 50mg BD solution (N=41)): 5 (12.2) Number (%) of patients | Hypokalemia, CTCAE grade >=3 (All 50mg BD solution (N=41)): 1 (2.4) Number (%) of patients | Lower respiratory tract infection, Any grade (All 50mg BD solution (N=41)): 7 (17.1) Number (%) of patients | Lower respiratory tract infection, CTCAE grade 1-2 (All 50mg BD solution (N=41)): 6 (14.6) Number (%) of patients | Lower respiratory tract infection, CTCAE grade >=3 (All 50mg BD solution (N=41)): 1 (2.4) Number (%) of patients | Mucositis, Any grade (All 50mg BD solution (N=41)): 20 (48.8) Number (%) of patients | Mucositis, CTCAE grade 1-2 (All 50mg BD solution (N=41)): 19 (46.3) Number (%) of patients | Mucositis, CTCAE grade >=3 (All 50mg BD solution (N=41)): 1 (2.4) Number (%) of patients | Nausea, Any grade (All 50mg BD solution (N=41)): 21 (51.2) Number (%) of patients | Nausea, CTCAE grade 1-2 (All 50mg BD solution (N=41)): 19 (46.3) Number (%) of patients | Nausea, CTCAE grade >=3 (All 50mg BD solution (N=41)): 2 (4.9) Number (%) of patients | Pruritus, Any grade (All 50mg BD solution (N=41)): 13 (31.7) Number (%) of patients | Pruritus, CTCAE grade 1-2 (All 50mg BD solution (N=41)): 13 (31.7) Number (%) of patients | Pruritus, CTCAE grade >=3 (All 50mg BD solution (N=41)): 0 Number (%) of patients | Rash, Any grade (All 50mg BD solution (N=41)): 17 (41.5) Number (%) of patients | Rash, CTCAE grade 1-2 (All 50mg BD solution (N=41)): 15 (36.6) Number (%) of patients | Rash, CTCAE grade >=3 (All 50mg BD solution (N=41)): 2 (4.9) Number (%) of patients | Vomiting, Any grade (All 50mg BD solution (N=41)): 12 (29.3) Number (%) of patients | Vomiting, CTCAE grade 1-2 (All 50mg BD solution (N=41)): 11 (26.8) Number (%) of patients | Vomiting, CTCAE grade >=3 (All 50mg BD solution (N=41)): 1 (2.4) Number (%) of patients | Anemia, Any grade (Part A 25mg BD solution (N=6)): 0 Number (%) of patients | Anemia, CTCAE grade 1-2 (Part A 25mg BD solution (N=6)): 0 Number (%) of patients | Anemia, CTCAE grade >=3 (Part A 25mg BD solution (N=6)): 0 Number (%) of patients | Back pain, Any grade (Part A 25mg BD solution (N=6)): 0 Number (%) of patients | Back pain, CTCAE grade 1-2 (Part A 25mg BD solution (N=6)): 0 Number (%) of patients | Back pain, CTCAE grade >=3 (Part A 25mg BD solution (N=6)): 0 Number (%) of patients | Constipation, Any grade (Part A 25mg BD solution (N=6)): 2 (33.3) Number (%) of patients | Constipation, CTCAE grade 1-2 (Part A 25mg BD solution (N=6)): 2 (33.3) Number (%) of patients | Constipation, CTCAE grade >=3 (Part A 25mg BD solution (N=6)): 0 Number (%) of patients | Cough, Any grade (Part A 25mg BD solution (N=6)): 3 (50.0) Number (%) of patients | Cough, CTCAE grade 1-2 (Part A 25mg BD solution (N=6)): 3 (50.0) Number (%) of patients | Cough, CTCAE grade >=3 (Part A 25mg BD solution (N=6)): 0 Number (%) of patients | Decreased appetite, Any grade (Part A 25mg BD solution (N=6)): 3 (50.0) Number (%) of patients | Decreased appetite, CTCAE grade 1-2 (Part A 25mg BD solution (N=6)): 3 (50.0) Number (%) of patients | Decreased appetite, CTCAE grade >=3 (Part A 25mg BD solution (N=6)): 0 Number (%) of patients | Diarrhea, Any grade (Part A 25mg BD solution (N=6)): 2 (33.3) Number (%) of patients | Diarrhea, CTCAE grade 1-2 (Part A 25mg BD solution (N=6)): 2 (33.3) Number (%) of patients | Diarrhea, CTCAE grade >=3 (Part A 25mg BD solution (N=6)): 0 Number (%) of patients | Dry mouth, CTCAE grade >=3 (Part A 25mg BD solution (N=6)): 0 Number (%) of patients | Dyspnea, Any grade (Part A 25mg BD solution (N=6)): 1 (16.7) Number (%) of patients | Dyspnea, CTCAE grade 1-2 (Part A 25mg BD solution (N=6)): 1 (16.7) Number (%) of patients | Dyspnea, CTCAE grade >=3 (Part A 25mg BD solution (N=6)): 0 Number (%) of patients | Fatigue, Any grade (Part A 25mg BD solution (N=6)): 3 (50.0) Number (%) of patients | Fatigue, CTCAE grade 1-2 (Part A 25mg BD solution (N=6)): 2 (33.3) Number (%) of patients | Fatigue, CTCAE grade >=3 (Part A 25mg BD solution (N=6)): 1 (16.7) Number (%) of patients | Hypokalemia, Any grade (Part A 25mg BD solution (N=6)): 2 (33.3) Number (%) of patients | Hypokalemia, CTCAE grade 1-2 (Part A 25mg BD solution (N=6)): 2 (33.3) Number (%) of patients | Hypokalemia, CTCAE grade >=3 (Part A 25mg BD solution (N=6)): 0 Number (%) of patients | Lower respiratory tract infection, Any grade (Part A 25mg BD solution (N=6)): 1 (16.7) Number (%) of patients | Lower respiratory tract infection, CTCAE grade 1-2 (Part A 25mg BD solution (N=6)): 0 Number (%) of patients | Lower respiratory tract infection, CTCAE grade >=3 (Part A 25mg BD solution (N=6)): 1 (16.7) Number (%) of patients | Mucositis, Any grade (Part A 25mg BD solution (N=6)): 2 (33.3) Number (%) of patients | Mucositis, CTCAE grade 1-2 (Part A 25mg BD solution (N=6)): 2 (33.3) Number (%) of patients | Mucositis, CTCAE grade >=3 (Part A 25mg BD solution (N=6)): 0 Number (%) of patients | Nausea, Any grade (Part A 25mg BD solution (N=6)): 2 (33.3) Number (%) of patients | Nausea, CTCAE grade 1-2 (Part A 25mg BD solution (N=6)): 2 (33.3) Number (%) of patients | Nausea, CTCAE grade >=3 (Part A 25mg BD solution (N=6)): 0 Number (%) of patients | Pruritus, Any grade (Part A 25mg BD solution (N=6)): 0 Number (%) of patients | Pruritus, CTCAE grade 1-2 (Part A 25mg BD solution (N=6)): 0 Number (%) of patients | Pruritus, CTCAE grade >=3 (Part A 25mg BD solution (N=6)): 0 Number (%) of patients | Rash, Any grade (Part A 25mg BD solution (N=6)): 1(16.7) Number (%) of patients | Rash, CTCAE grade 1-2 (Part A 25mg BD solution (N=6)): 1(16.7) Number (%) of patients | Rash, CTCAE grade >=3 (Part A 25mg BD solution (N=6)): 0 Number (%) of patients | Vomiting, Any grade (Part A 25mg BD solution (N=6)): 0 Number (%) of patients | Vomiting, CTCAE grade 1-2 (Part A 25mg BD solution (N=6)): 0 Number (%) of patients | Vomiting, CTCAE grade >=3 (Part A 25mg BD solution (N=6)): 0 Number (%) of patients | Anemia, Any grade (Part A 70mg BD solution (N=5)): 1 (20.0) Number (%) of patients | Anemia, CTCAE grade 1-2 (Part A 70mg BD solution (N=5)): 0 Number (%) of patients | Anemia, CTCAE grade >=3 (Part A 70mg BD solution (N=5)): 1 (20.0) Number (%) of patients | Back pain, Any grade (Part A 70mg BD solution (N=5)): 0 Number (%) of patients | Back pain, CTCAE grade 1-2 (Part A 70mg BD solution (N=5)): 0 Number (%) of patients | Back pain, CTCAE grade >=3 (Part A 70mg BD solution (N=5)): 0 Number (%) of patients | Constipation, Any grade (Part A 70mg BD solution (N=5)): 0 Number (%) of patients | Constipation, CTCAE grade 1-2 (Part A 70mg BD solution (N=5)): 0 Number (%) of patients | Constipation, CTCAE grade >=3 (Part A 70mg BD solution (N=5)): 0 Number (%) of patients | Cough, Any grade (Part A 70mg BD solution (N=5)): 1 (20.0) Number (%) of patients | Cough, CTCAE grade 1-2 (Part A 70mg BD solution (N=5)): 1 (20.0) Number (%) of patients | Cough, CTCAE grade >=3 (Part A 70mg BD solution (N=5)): 0 Number (%) of patients | Decreased appetite, Any grade (Part A 70mg BD solution (N=5)): 2 (40.0) Number (%) of patients | Decreased appetite, CTCAE grade 1-2 (Part A 70mg BD solution (N=5)): 2 (40.0) Number (%) of patients | Decreased appetite, CTCAE grade >=3 (Part A 70mg BD solution (N=5)): 0 Number (%) of patients | Diarrhea, Any grade (Part A 70mg BD solution (N=5)): 3 (60.0) Number (%) of patients | Diarrhea, CTCAE grade 1-2 (Part A 70mg BD solution (N=5)): 3 (60.0) Number (%) of patients | Diarrhea, CTCAE grade >=3 (Part A 70mg BD solution (N=5)): 0 Number (%) of patients | Dry mouth, Any grade (Part A 70mg BD solution (N=5)): 0 Number (%) of patients | Dry mouth, CTCAE grade 1-2 (Part A 70mg BD solution (N=5)): 0 Number (%) of patients | Dry mouth, CTCAE grade >=3 (Part A 70mg BD solution (N=5)): 0 Number (%) of patients | Dyspnea, Any grade (Part A 70mg BD solution (N=5)): 1 (20.0) Number (%) of patients | Dyspnea, CTCAE grade 1-2 (Part A 70mg BD solution (N=5)): 1 (20.0) Number (%) of patients | Dyspnea, CTCAE grade >=3 (Part A 70mg BD solution (N=5)): 0 Number (%) of patients
